# Results as given in patent US6960613B2, “Treatment of neurotic disorders” (H. Lundbeck A/S, priority 1999, dated 2005).
# Columns and labels:
# [1] = test system: mice black and white box behaviour; assay: Black and White Box Test in mice; type: in vivo, mouse; conditions: male mice, pretreatment time 30 min, test duration 5 min
# Method: Black and White Box Test This is a test for anxiolytic effects. The test model is further described in Sánchez, C. (1995) Pharmacol. Toxicol. 77, 71-78. Male mice (Lundbeck strain, Charles River, Germany) weighing 30-35 g were housed in groups of 4 in macrolon cages type II under a reversed 12 h day/night cycle (lights off 7 p.m.). The mice were adapted to the reversed light/dark cycle for at least 3 weeks prior to testing. The room temperature (21±2° C.), relative humidity (55±5%), and air exchange (16 times per h) were automatically controlled. The animals had free access to commercial food pellets and water. The test box used was designed as described by Sánchez (1995) (supra). […] The lower row of photocells (2 cm above cage floor) detected horizontal locomotor activity (crossing, entries, and time in each compartment), whereas the upper row of photocells (5 cm above cage floor) detected rearing activity. The accumulated data for 1 min intervals were recorded from 4 test boxed simultaneously and stored in a Paradox data base. […] The test duration was 5 min and the number of rears and line crossings between squares in both the black and the white compartment, number of entries into the black compartment and time spent in the white compartment were assessed.
# [2] = test system: schedule-induced polydipsia (water intake); assay: Schedule-induced polydipsia in rats; type: in vivo, rat; conditions: male wistar rats, oral 60 min prior to testing; Citalopram 40 mg/kg, Lu 26-054 20 mg/kg
# From the text: Schedule-induced Polydipsia Food deprived rats exposed to a procedure in which food is delivered intermittently will drink large amounts of water if given the opportunity to do so. This behavioural phenomenon is called schedule-induced polydipsia and can be considered as an excessive expression of a normal behaviour. Schedule-induced polydipsia is regarded as a model of obsessive-compulsive disorder (Woods et al. 1993). Male wistar rats (Møllegard) housed in pairs and kept on a food-restricted diet (80% of normal body weight) for 2 weeks before the start of testing and throughout the duration of testing. To induce polydipsia rats were placed in test chambers where a pellet dispenser automatically dispensed one 60 mg food pellet every 60 seconds. Water was available at all times in the test chamber. Rats were tested 4-5 times per week, after 3-4 weeks training 70% of the rats were drinking >10 ml per 30 min test session. Once the rats had attained a steady drinking level compounds could be tested. Citalopram (40 mg/kg) or Lu 26-054 (20 mg/kg) were administered orally 60 min prior to testing and at 10:00 on the non-test days. The water intake was presented as a percentage of the pre-dosing (baseline) level.
# [3] = test system: footshock-induced ultrasonic vocalisation; assay: Footshock-induced ultrasonic vocalisation test in adult rats; type: in vivo, rat; conditions: male Wistar rats, drug given 30 min before test, four 1.0 mA footshocks
# From the text: The Footshock-induced Vocalisation Test in Adult Rats. The footshock-induced vocalisation test in adult rats (described in detail in Sánchez C., Effect of serotonergic drugs on footshock-induced ultrasonic vocalization in adult male rats. Behav. Pharmacol. 1993; 4:267-277) is a test for anxiolytic and anti-panic effects. Male rats (Wistar WU, Charles River, Germany), weighing 150-175 g at the beginning of the study were used. Briefly, test cages (22 cm×22 cm×22 cm) made of grey Perspex and equipped with a metal grid floor were used. Footshocks were delivered from a two pole shocker and a microphone sensitive to ultrasounds in the range of 20-30 kHz was placed in the centre of the lid of the test cage. The ultrasounds were sent from the microphone to a preamplifier and converted from AC signals to DC signals in a signal rectifier. The accumulated time, in which the voltage of the rectified signal was larger than the voltage of a previously determined threshold level, was recorded. Twenty-four hours before the first test session the animals were primed. A rat was placed in each test cage and received, immediately thereafter, four 1.0 mA inescapable footshocks each of a duration of 10 sec and with an intershock interval of 5 sec. The animals were left in the test cage for 6 min after the last shock. […] The total time spent on vocalisation was recorded. […]
Compound,effect in black and white box model [1],water intake (percentage of pre-dosing baseline level) [2],inhibition of vocalisation [3],"maximum effect, inhibition of vocalisation [3]"
"CN(C)CCC[C@@]1(c2ccc(F)cc2)OCc2cc(C#N)ccc21 [escitalopram, (S)-1-[3-(dimethyl-amino)propyl]-1-(4-fluorophenyl)-1,3-dihydro-5-isobenzofurancarbonitrile]",prominent effects,significant reduction in water intake,able to inhibit vocalisation completely,
"CN(C)CCCC1(c2ccc(F)cc2)OCc2cc(C#N)ccc21 (racemic) [citalopram, reference compound]",,without effect,,60-70%
